Test results from PMC10609904 (Pharmaceuticals, 2023).
pIC50: −log10 of the molar value. Read-outs that look alike come from different tables or passages of the source.

Experiments:
[1] = ABTS radical-scavenging activity assay
Method: (§1) The DPPH radical scavenging assay and the ABTS assay were used to assess anti-oxidant activity, as previously described in detail by Nguyen et al.. In a 96-well plate, 100 μL of samples (at various concentrations) or distilled water (blank sample) were combined with 25 μL of 0.75 mM DPPH solution (dissolved in methanol). After that, the plates were kept in complete darkness for 30 min. Subsequently, the absorbance was determined at a wavelength of 517 nm. For the ABTS radical-scavenging activity assay, test samples (at various concentrations) were mixed with pre-diluted ABTS solution (reaching an optical density of 0.7). The reaction was allowed to occur for 10 min at room temperature. The absorbance was measured at 734 nm. Ascorbic acid was used as positive control.
(§2) All chemical assays were conducted in triplicate. […] The IC50 value (half-maximal inhibitory concentration of samples) was determined via a standard equation constructed by the inhibitory activity (%) and the respective concentration of the tested sample.

[2] = DPPH radical scavenging assay
Method: as §1, §2

[3] = target: T1, acetylcholinesterase (AChE) (Electrophorus electricus, UniProt O42275); assay: biochemical
T1 construct: purchased Sigma Aldrich
Method: The anti-Alzheimer impact was assessed in vitro utilizing the key enzyme acetylcholinesterase inhibition assay, as described in an earlier study. In detail, 120 μL of phosphate buffer, 60 μL of tested sample, and 60 μL of enzymatic solution (0.5 mM) were mixed and incubated for fifteen minutes at 25 °C in a 96-well plate. This was followed by the addition of 30 μL of 5,5′-dithiobis-2-nitrobenzoic acid (0.003 M) and 40 μL of acetylthiocholine iodide (0.002 M). The reaction mixture was kept in an incubator at 25 °C for ten minutes. The absorbance of the solution was measured at 415 nm. Berberine chloride was used as a standard inhibitor of the enzyme.
as §2

T1 sequence (O42275 24-633): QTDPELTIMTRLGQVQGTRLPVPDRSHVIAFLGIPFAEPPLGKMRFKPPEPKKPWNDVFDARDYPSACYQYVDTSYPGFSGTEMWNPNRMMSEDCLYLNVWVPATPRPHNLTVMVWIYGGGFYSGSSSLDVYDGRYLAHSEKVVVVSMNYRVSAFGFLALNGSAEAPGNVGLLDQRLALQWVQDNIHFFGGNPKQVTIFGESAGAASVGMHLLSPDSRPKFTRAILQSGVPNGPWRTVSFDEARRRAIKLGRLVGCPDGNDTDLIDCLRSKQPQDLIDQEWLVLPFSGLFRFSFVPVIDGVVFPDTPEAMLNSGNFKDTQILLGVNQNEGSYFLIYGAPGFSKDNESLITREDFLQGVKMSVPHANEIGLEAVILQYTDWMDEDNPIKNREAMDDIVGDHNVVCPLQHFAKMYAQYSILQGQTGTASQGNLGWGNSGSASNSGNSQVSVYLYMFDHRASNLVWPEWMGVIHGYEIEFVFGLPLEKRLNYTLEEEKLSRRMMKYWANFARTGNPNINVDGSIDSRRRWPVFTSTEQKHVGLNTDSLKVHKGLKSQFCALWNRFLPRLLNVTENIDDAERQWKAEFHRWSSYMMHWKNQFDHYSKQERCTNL

## O=C1O[C@H]([C@@H](O)CO)C(O)=C1O [Vitamin C, Ascorbic acid]
[1]
  ABTS IC50: 23.0 ± 0.4 µg/mL
[2]
  DPPH IC50: 38.4 ± 0.5 µg/mL

## COc1cc(O)c2c(c1)oc(=O)c1c3cc(O)c(O)cc3oc21 [compound 1, Wedelolactone]
[3]; read-out: AChE IC50 (converted)
  IC50: 195 µM

## O=C(O)c1ccccc1O [compound 8, Salicylic acid]
[3]
  pIC50: 3.39

## COc1ccc2cc3[n+](cc2c1OC)CCc1cc2c(cc1-3)OCO2 [compound 37, Berberine chloride]
[3]
  pIC50: 3.05
